# Conditions: buffer; pH 7.4; 200.0 µM
row,solubility kinetic [µg/mL],Structure (SMILES)
1,> 51.3,CSc1ccc(CNCCCSc2ncccn2)cc1.Cl
2,4.1,O=C(CCCNC(=O)c1ccc(Cl)cc1)NCc1ccc(F)cc1
3,> 52.7,CC(=O)c1ccc(NC(=O)COC(=O)Cn2cnc3ccccc32)cc1
4,> 43.5,CN(NC(=O)c1ccccc1F)c1ccc([N+](=O)[O-])cn1
5,24,CSc1nc2c(c(=O)[nH]c(=O)n2C)n1CCCc1ccccc1
6,> 48.8,COC(=O)CC1C(=O)NCCN1C(=S)Nc1ccc(F)cc1 (configuration not stated)
7,12.2,COc1ccc(NC(=O)COc2ccccc2Cc2ccccc2)cn1
8,34.3,CC12CN3CC(C)(CN(C1)C3c1ccccc1F)C2 (configuration not stated)
9,> 41.6,Cc1cnc(C(=O)OCC(=O)N2CCC(C)CC2)cn1
10,> 35.5,C=CCn1c(C(C)C)nc2ccccc21.Cl
11,2.7,CNC(=O)c1c(NC(=O)c2ccco2)sc2c1CCCC2
12,< 0.2,c1ccc2c(Nc3nc(-c4ccncc4)nc4ccccc34)cccc2c1
13,> 40.2,Cc1ccc(-n2nc(-c3ccco3)cc2C(=O)O)cc1
14,49.3,COC(=O)c1c(-c2c(Cl)cccc2Cl)noc1NC(=O)N(C)C
15,2.9,COc1nc2ccccc2nc1N1CCN(Cc2ccc3c(c2)OCO3)CC1
16,> 35.9,C/C(=N/NC(=O)c1ccncc1)c1ccccc1
17,42.6,COc1cc(OC)c(C(=O)Nc2ccncc2)cc1OC
18,< 0.4,C=CCn1c(=NC(=O)c2cccs2)sc2cccc(OC)c21
19,> 63.2,COc1ccc2cc(Br)ccc2c1CC(=O)NCCCN1CCOCC1
20,> 51.9,Br.CNc1nc2ccccc2n1CC(=O)c1ccccc1
21,> 46,COc1ccc(/C=C/C(=O)NC(=S)N2CCOCC2)cc1
22,31.5,CN(Cc1ccc(N(C)C)cc1)C(=O)c1cc2ccccc2o1
23,> 28.5,O=[N+]([O-])c1ccc(O)c2ncccc12
24,10.7,CSc1cccc(NC(=O)COC(=O)C2(c3ccccc3)CC2)c1
25,41.3,COc1ccc(C(O)Cn2ccsc2=NC(C)=O)cc1 (configuration not stated)

row,solubility kinetic [µg/mL],Structure (SMILES)
1,> 44.2,CC1CCN(C(=O)CCCC(=O)N2CCC(C)CC2)CC1
2,> 47.6,CC(C)N1C(=O)C(O)(C2COC(C)(C)CC2=O)c2ccccc21 (configuration not stated)
3,> 39.3,CSc1ccc(CNC(C)(C)CO)cc1.Cl
4,40.4,CN(C)Cc1c(-c2ccc(Cl)cc2)nc2ccccn12
5,> 52.1,Br.CC(C)CC(N)C(=O)OCc1ccc([N+](=O)[O-])cc1 (configuration not stated)
6,0.5,CSc1ccc(Cl)c(C(=O)Nc2ccc(Cl)cn2)c1
7,> 64.7,Cc1ccc(S(=O)(=O)c2nc(-c3cccs3)oc2N2CCC(C(N)=O)CC2)cc1
8,27.8,Cc1cc(C)c(OCCN2CCCC2)c(Cl)c1
9,28.2,COc1ccc(S(=O)(=O)N(CCC#N)Cc2ccco2)cc1OC
10,12.1,CN(C)c1ccc(C(O)Cc2nc3ccccc3n2C)cc1 (configuration not stated)
11,35.8,CSc1ncccc1C(=O)OCC(=O)NCc1cccs1
12,6.5,Cc1ccc(CNC(=O)COC(=O)c2ccc(S(=O)(=O)N3CCOCC3)cc2)cc1
13,2.8,CC(NC(=O)c1cc(=O)[nH]c2ccccc12)c1ccc(F)cc1F (configuration not stated)
14,> 43.2,O=S(=O)(NC1=NCCCCC1)c1cc(F)ccc1F
15,> 55.8,CC(=O)NNC(=O)c1[nH]c2ccc(Br)cc2c1-c1ccccc1
16,41.4,Cc1ccccc1C(=O)NC(=S)N(C)C1CCCCC1
17,> 47.7,COc1cc(OC)c(OC)cc1CN1CCC(O)CC1.Cl
18,> 41.3,COCc1ccc(C(=O)Nc2ccc(C(=O)O)cc2)o1
19,> 50.5,CC(C)(C)OC(=O)N1CCC(CNC(=O)c2ccc(F)cc2)CC1
20,42.5,O=C(CSc1ncccn1)NC1CCCc2ccccc21 (configuration not stated)
21,> 48.8,Cc1onc(-c2ccc(Cl)cc2Cl)c1C(=O)/C=C/N(C)C
22,45.2,Cc1cc(OCC(O)CN2CCOCC2)cc(C)c1Cl.Cl (configuration not stated)
23,> 38,Cc1nn(C)cc1S(=O)(=O)Nc1ncccn1
24,31.9,CCCN(CCC)C(=O)Nc1cc(Cl)ccc1OC
25,> 52.1,Cc1ccc(NC(=O)C(=O)NCCCN2CC(C(=O)O)CC2=O)cc1 (configuration not stated)

row,solubility kinetic [µg/mL],Structure (SMILES)
1,< 0.2,Cc1cc(-c2csc(Nc3ccccn3)n2)ccc1F
2,> 41.9,O=C1CC(C(=O)NC2CCCCC2)C2(CCCCC2)O1 (configuration not stated)
3,> 36.4,O=[N+]([O-])c1ccc(Cl)cc1N1CCOCC1
4,> 38.4,C=CCNC(=O)/C(C#N)=C/c1ccc(C(=O)O)cc1
5,39.6,O=C(COc1ccccc1Cl)NCCNC(=O)c1cnccn1
6,6.3,CCOc1ccc(-n2c(C)c(C(=O)O)c3cc(OC)ccc32)cc1
7,2.2,CCN(CC)c1ccc(S(=O)(=O)N2CCOCC2)cc1NC(=O)Nc1ccccc1
8,33.5,CCCCC(CC)CNC(=O)Cn1c(=O)[nH]c2ccsc2c1=O (configuration not stated)
9,1,NC(=O)c1sc2nc(-c3ccccc3)ccc2c1N
10,4.4,CCOC(=O)c1c(C)[nH]c(C(=O)COC(=O)c2ccc([N+](=O)[O-])o2)c1C
11,11.9,CCCC(=O)N/C(N)=N/c1nc2ccccc2o1
12,> 45.5,O=C1c2ccc([N+](=O)[O-])cc2C(=O)N1c1ccc(Cl)cn1
13,< 0.7,CCOC(=O)C1=C(C)N(CC(C)C)C(=O)/C1=C\c1cccs1
14,28.7,CCc1sc(C(=O)NCc2ccccc2)cc1C
15,< 0.8,Fc1ccc(-c2csc(-c3ccc(C4SCCS4)cc3)n2)cc1F
16,> 60.5,COc1cccc(CC(=O)Nc2ccc(S(=O)(=O)Nc3nccs3)cc2)c1
17,2.4,Cc1ccc(NC(=O)CC2CCCC2)c(Br)c1
18,> 42.9,Cc1onc(-c2ccccc2)c1C(=O)Nc1nncs1
19,1.1,O=C(OCc1nc2ccccc2s1)c1ccc([N+](=O)[O-])o1
20,4.9,Cc1ccc(NC(=O)CCN2C(=O)c3ccccc3C2=O)c(C)c1
21,> 33,CCNC(=S)Nn1cnc2ccccc21
22,2.8,CNc1nc(NCc2ccccc2)nc(N)c1[N+](=O)[O-]
23,30.8,COc1ccc(C)c2sc(N(CCN(C)C)C(=O)c3ccc4ccccc4c3)nc12.Cl
24,9.4,O=C(COC(=O)c1ccc(F)cc1)NCC1CCCCC1
25,5.5,CC(CCc1ccccc1)NC(=O)c1cnc(Cl)c(Cl)c1 (configuration not stated)

row,solubility kinetic [µg/mL],Structure (SMILES)
1,18.3,N#C/C(=C\c1ccccc1)C(=O)Nc1cccnc1
2,> 41.6,O=C(O)COCC(=O)Nc1ccc(-n2cnnn2)cc1
3,51.6,CC(C)(CNC(=O)c1ccccc1F)CNC(=O)c1ccccc1F
4,> 43.6,Cc1cccc(S(=O)(=O)N2CCn3cccc3C2C)c1 (configuration not stated)
5,59.1,COc1ccc2c(COC(=O)[C@H](C)NS(=O)(=O)c3ccccc3F)cc(=O)oc2c1
6,2.7,COc1cc2c(cc1OC)C(C)N(C(=O)c1c(C)noc1C)CC2 (configuration not stated)
7,1.3,Cc1cc(C)c2nc(/N=C(\N)NC(=O)c3ccccc3)nc(C)c2c1
8,> 27,CCc1nc2sccc2c(=O)[nH]1
9,13.9,Cn1c(=O)c2c(ncn2CCOc2ccc(F)cc2)n(C)c1=O
10,< 0.3,O=[N+]([O-])c1ccc2oc(-c3ccccc3)nc2c1
11,2,O=C(Nc1ccccc1)/C(=C\c1ccc(F)cc1)NC(=O)c1ccco1
12,> 36.3,Cc1cccc(OCC(=O)Nc2ccncc2)c1
13,< 0.7,COc1cc2c(cc1OC)C(c1ccccc1OC(C)C)CC(=O)N2 (configuration not stated)
14,> 41,CC(C)N(CCC#N)C(=O)Nc1ccc2c(c1)CCO2
15,> 36,CC(C)(CO)NCC#Cc1ccccc1.Cl
16,< 0.4,COc1ccc(NC(=O)NCCc2ccc(Cl)cc2)cc1OC
17,> 54.4,COc1ccccc1NCCC(=O)OCC(=O)Nc1ccccc1Cl
18,> 41.9,O=[N+]([O-])c1ccc(S(=O)(=O)Nc2ccccn2)cc1
19,8.5,CC(=O)Nc1nc(-c2ccc3c(c2)OCO3)cs1
20,< 0.7,Cc1oc(C(C)(C)C)cc1C(=O)NCc1ccc2c(c1)OCO2
21,15,COc1cccc(C(=O)Nc2cc(Cl)c(O)c(Cl)c2)c1
22,> 49.6,O=C(c1ccc2ccccc2c1)N1CCN(Cc2ccccc2)CC1
23,0.7,Cn1cccc1C(=O)OCc1ccc(C(C)(C)C)cc1
24,24.8,O=C(Oc1ccccc1)N1CCCC1
25,> 42.5,NC(=O)COC(=O)CC(c1ccccc1)c1ccccc1

row,solubility kinetic [µg/mL],Structure (SMILES)
1,> 41.4,O=C(NCCOc1ccccc1)c1ccccc1Cl
2,> 62.2,CN(CC(=O)Nc1ccc(F)cc1)C(=O)CSc1nnc(Cc2ccccc2)o1
3,1.1,CC(=O)NC(=S)Nc1cccc2ccc(C)nc12
4,2.2,O=C(/C=C/c1ccc(Cl)cc1)OCC(=O)c1ccc[nH]1
5,> 33.8,O=C(O)c1cccc(N(CCO)CCO)c1
6,27,Cc1ccc(C)c(S(=O)(=O)c2c(C)cc(C)nc2Cl)c1
7,> 38.7,Cc1csc(NC(=O)c2ccc3nc[nH]c3c2)n1
8,> 51.1,C=CCC1(C#N)C(=S)NC(C)=C(C(=O)OCC)C1c1ccccc1 (configuration not stated)
9,2.6,Cc1cc(=O)[nH]c2c(C)cc(S(=O)(=O)N3CCCCC3)cc12
10,> 45.2,CCCc1cc(=O)[nH]c(SCc2nc3ccccc3o2)n1
11,2.9,Fc1cccc(NC(=S)NC2CCCCCCC2)c1
12,35,CC1CCCCN1C(=O)CCS(=O)(=O)Cc1ccccc1 (configuration not stated)
13,49.9,CCn1c(SC(C)C(=O)NCC2CCCO2)nc2ccccc21 (configuration not stated)
14,3.1,CCn1c(=O)c2ccccc2n(Cc2ccccc2C)c1=O
15,0.7,Cc1[nH]c2ccccc2c1/C=C/C(=O)c1ccncc1
16,34.6,CC(CCc1ccccc1)NC(=O)CSc1ccccn1 (configuration not stated)
17,> 41.8,O=C(Cc1ncc(C(F)(F)F)cc1Cl)NC1CC1
18,6.5,O=c1sc(Nc2ccccc2)nc2ccccc12
19,4.3,CCOc1cc([N+](=O)[O-])c2nc(N)sc2c1
20,> 53.6,O=C(O)c1ccc(NCc2nc3ccccc3n2Cc2ccccc2)cc1
21,> 50.3,CCCN(Cc1cc2cc(C)ccc2[nH]c1=O)C(=O)c1ccccn1

row,Structure (SMILES),solubility kinetic [µg/mL]
1,Cc1cc(OCC(=O)N2CCCN(C)CC2)ccc1Cl,> 44.5

# Reference: PubChem BioAssay AID1996
